Measurements reported in ChEMBL document CHEMBL1141307, “Antimalarial benzoquinones from an endophytic fungus, Xylaria sp” (J Nat Prod, 2007).
Active and inactive are the calls of the source. No cut-off for these calls is given here.

Columns and labels:
[1] = system: Vero; assay: Cytotoxicity against African green monkey Vero cells after 72 hrs; type: cell-based; details: Chlorocebus sabaeus
[2] = system: Plasmodium falciparum; assay: Antimalarial activity against multidrug-resistant Plasmodium falciparum K1 by microculture radioisotope assay; type: functional, organism-based

Q: Which Activity [1] does the source give for `C[C@H]1OC(=O)c2c(O)cccc2C1O` (stereo not given in full) here?
A: The Activity was “Not Active”.

Q: And the Activity [2]?
A: The Activity was “inactive”.

Q: Which IC50 [1] does the source give for `COC1=CC(=O)C(Cl)=C(C)C1=O` here?
A: The IC50 was 1350 nM.

Q: What about the IC50 [2] of the same compound?
A: The IC50 was 1840 nM.

Q: How did the IC50 [1] turn out when `Cc1c2ccncc2c(C)c2c1[nH]c1ccccc12` [ELLIPTECINE] was run?
A: The IC50 was 2030 nM.

Q: How did the IC50 [2] turn out when `C[C@H]1[C@@H](O)O[C@@H]2O[C@@]3(C)CC[C@H]4[C@H](C)CC[C@@H]1[C@@]24OO3` [ARTENIMOL] was run?
A: Its IC50 is 3.3 nM.

Q: What does the source list for `COC1=CC(=O)C(O)=C(C)C1=O`?
A: Activity [1]: Not Active; Activity [2]: inactive

Q: With `COc1cc2c3c(oc2c(C)c1O)C(=O)C(C)=CC3=O` [XYLARIAQUINONE A] as the compound, how does the IC50 [1] read?
A: Its IC50 is > 184000 nM.

Q: What about the IC50 [2] of the same compound?
A: The IC50 was 6680 nM.
